Laboratory results published in patent US20240002332A1, “Small Molecule Inhibitors of SARS-CoV-2 Infections” (priority 2020, published 2024).

Legend:
[1] = Pharmacokinetics in mice IV 3 and PO 10 mg/kg; plasma, lung and liver; conditions: for Kp: AUC ratio (tissue/plasma)
[2] = Tolerability study in mice, 7 days QD, PK on the 7th day; conditions: 25, 50 and 100 mg/kg PO QD 7 days, C57BL/6J mice
[3] = Kinetic solubility (Tier I ADME); conditions: kinetic from dmso stock
[4] = mice, Compound P3 dosed PO 10 mg/kg, Liver
[5] = mice, Compound P3 dosed PO 10 mg/kg, Lung
[6] = mice, Compound P3 dosed PO 10 mg/kg, Plasma
[7] = mouse Plasma, Compound P3 dosed IV 3 mg/kg
[8] = mouse Plasma, Compound P3 dosed PO 10 mg/kg

O=C(Nc1ccc([N+](=O)[O-])cc1Cl)c1cc(Cl)ccc1OC(=O)N1CCNCC1 [Compound P3, 4-chloro-2-((2-chloro-4-nitrophenyl)carbamoyl)phenyl piperazine-1-carboxylate]
clearance ([1]; mice): moderate
AUC0-INF/D [1, 4]: 65.7 kg·ng·h/mL/mg
AUC_% Extrap [1, 4]: 0.9%
Cmax/D [1, 4]: 24 kg·ng/mL/mg
AUC0-INF/D [1, 5]: 24400 kg·ng·h/mL/mg
AUC_% Extrap [1, 5]: 0.2%
Cmax/D [1, 5]: 4420 kg·ng/mL/mg
Tmax [1, 5]: 1.5 h
t1/2 [1, 5]: 2.8 h
AUC0-INF [1, 6]: 3530 ng·h/mL
AUC0-INF/D [1, 6]: 353 kg·ng·h/mL/mg
AUC_% Extrap [1, 6]: 0.5%
Cmax [1, 6]: 606 ng/mL
Cmax/D [1, 6]: 60.6 kg·ng/mL/mg
AUCINF/D [1, 7]: 426 kg·ng·h/mL/mg
AUCLast/D [1, 7]: 425 kg·ng·h/mL/mg
AUC_%Extrap_obs [1, 7]: 0.06%
Clast [1, 7]: 0.163 ng/mL
Cmax/D [1, 7]: 154 kg·ng/mL/mg
Tlast [1, 7]: 48 h
AUCINF/D [1, 8]: 353 kg·ng·h/mL/mg
AUCINF_obs [1, 8]: 3530 ng·h/mL
AUCLast/D [1, 8]: 351 kg·ng·h/mL/mg
AUC_%Extrap_obs [1, 8]: 0.5%
Clast [1, 8]: 5.23 ng/mL
Cmax/D [1, 8]: 60.6 kg·ng/mL/mg
F [1, 8]: 83%
Tlast [1, 8]: 30 h
bioavailability ([1]; mouse, in vivo, 10 mg/kg): 83%
C0 ([1]; mouse, in vivo, iv, 3 mg/kg): 536 ng/mL
Tmax ([1]; mouse, in vivo, iv, 3 mg/kg): 0.083 h
Vd ([1]; mouse, in vivo, iv, 3 mg/kg): 8.9 L/kg
clearance ([1]; mouse, in vivo, iv, 3 mg/kg): 39 mL/min/kg
AUC(0-inf) ([1]; mouse, in vivo, iv, 3 mg/kg, AUCINF_obs, mouse Plasma, Compound P3 dosed IV 3 mg/kg): 1280 ng·h/mL
AUC(0-t) ([1]; mouse, in vivo, iv, 3 mg/kg, AUClast, mouse Plasma, Compound P3 dosed IV 3 mg/kg): 1280 ng·h/mL
Cmax ([1]; mouse, in vivo, iv, 3 mg/kg, Cmax, mouse Plasma, Compound P3 dosed IV 3 mg/kg): 461 ng/mL
half-life ([1]; mouse, in vivo, iv, 3 mg/kg, t½, mouse Plasma, Compound P3 dosed IV 3 mg/kg): 3.3 h
AUC(0-inf) ([1]; mouse, in vivo, po, 10 mg/kg, AUC0-INF, mice, Compound P3 dosed PO 10 mg/kg, Liver): 657 ng·h/mL
AUC(0-inf) ([1]; mouse, in vivo, po, 10 mg/kg, AUC0-INF, mice, Compound P3 dosed PO 10 mg/kg, Lung): 244000 ng·h/mL
AUC(0-t) ([1]; mouse, in vivo, po, 10 mg/kg, AUC0-last, mice, Compound P3 dosed PO 10 mg/kg, Liver): 651 ng·h/mL
AUC(0-t) ([1]; mouse, in vivo, po, 10 mg/kg, AUC0-last, mice, Compound P3 dosed PO 10 mg/kg, Lung): 244000 ng·h/mL
AUC(0-t) ([1]; mouse, in vivo, po, 10 mg/kg, AUC0-last, mice, Compound P3 dosed PO 10 mg/kg, Plasma): 3510 ng·h/mL
Kp ([1]; mouse, in vivo, po, 10 mg/kg, mice, Compound P3 dosed PO 10 mg/kg, Liver): 0.19
Kp ([1]; mouse, in vivo, po, 10 mg/kg, mice, Compound P3 dosed PO 10 mg/kg, Lung): 69
AUC(0-t) ([1]; mouse, in vivo, po, 10 mg/kg, AUClast, mouse Plasma, Compound P3 dosed PO 10 mg/kg): 3510 ng·h/mL
Cmax ([1]; mouse, in vivo, po, 10 mg/kg, Cmax, mice, Compound P3 dosed PO 10 mg/kg, Liver): 240 ng/mL
Cmax ([1]; mouse, in vivo, po, 10 mg/kg, Cmax, mice, Compound P3 dosed PO 10 mg/kg, Lung): 44200 ng/mL
half-life ([1]; mouse, in vivo, po, 10 mg/kg, t1/2, mice, Compound P3 dosed PO 10 mg/kg, Liver): 4 h
half-life ([1]; mouse, in vivo, po, 10 mg/kg, t1/2, mice, Compound P3 dosed PO 10 mg/kg, Plasma): 2.2 h
half-life ([1]; mouse, in vivo, po, 10 mg/kg, t½, mouse Plasma, Compound P3 dosed PO 10 mg/kg): 2.2 h
body weight [2]: no dose dependent weight loss
tolerability [2]: tolerable for the study period, with no gross findings
solubility [3]: > 43 µg/mL
